The results in this text go back to ChEMBL document CHEMBL1148467, “Benzoxazinones as PPARgamma agonists. 2. SAR of the amide substituent and in vivo results in a type 2 diabetes model” (J Med Chem, 2004).

A value given as a limit tells only on which side of the number the result lay.

The nature of data set [1]: Oral bioavailability in rat (dose 30 mg/kg). The note with it: in vivo. The class given is ADME, organism-based.
Data set [2] in a line: Half-life in rat at 30 mg/kg dose administered orally. The settings on record: in vivo, po.
A short description of data set [3]: Area under curve was evaluated in rat at 3 mg/kg dose administered intravenously. The settings on record: in vivo, iv. In kind it is ADME, organism-based. Details: dose 3 mg/kg, route intravenous.
Data set [4] deals with T1, Peroxisome proliferator-activated receptor gamma (Homo sapiens, UniProt P37231).
T1 sequence (P37231 whole entry): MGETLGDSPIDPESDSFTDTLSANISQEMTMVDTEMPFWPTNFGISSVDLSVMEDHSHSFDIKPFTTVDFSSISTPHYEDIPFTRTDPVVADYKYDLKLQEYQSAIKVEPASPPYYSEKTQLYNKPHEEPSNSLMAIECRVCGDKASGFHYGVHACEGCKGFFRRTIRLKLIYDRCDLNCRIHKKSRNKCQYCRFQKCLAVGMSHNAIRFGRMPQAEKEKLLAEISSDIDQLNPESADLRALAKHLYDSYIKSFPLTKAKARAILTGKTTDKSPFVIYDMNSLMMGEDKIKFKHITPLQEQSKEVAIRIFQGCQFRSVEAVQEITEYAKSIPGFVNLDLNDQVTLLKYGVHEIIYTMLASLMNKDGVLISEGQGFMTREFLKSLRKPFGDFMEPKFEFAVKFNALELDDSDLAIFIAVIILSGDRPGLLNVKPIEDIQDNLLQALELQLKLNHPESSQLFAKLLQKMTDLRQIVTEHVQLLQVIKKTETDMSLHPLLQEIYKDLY
Description: Agonistic activity against PPAR (peroxisome proliferator activated receptor gamma) in Suarus chinesis

Data set [5] in a line: In vitro metabolic stability at 5 uM was determined by incubating with human liver microsomes at 37 degree C. The class given is ADME, Microsome. (In general: Liver microsomes are a subcellular fraction often used to study metabolism.)
Data set [6] is described as follows: Area under curve was evaluated in rat at 30 mg/kg dose administered orally. The note with it: in vivo, po.

The half-life is the time in which the quantity being followed falls by half. For orientation: AUC means concentration integrated over time. Lower therefore signals less exposure. As usually defined, the EC50 is the midpoint of the concentration-response curve. Low values mean higher potency in that assay, high ones lower potency in that assay.

As for `O=C(O)Cc1ccccc1OCCC1Oc2ccccc2N(CCCCCCF)C1=O` (centres undefined), the bioavailability in data set [1] is 100%. The half-life in data set [2] is 16 h. In data set [3], this compound returned an AUC of 84 µM·h. Moreover, the EC50 in data set [4] worked out at 0.117 µM. In data set [5], this compound yielded a half-life at 5 µM of 1.27 h.

Compound `CN1C(=O)C(CCOc2ccccc2CC(=O)O)Oc2ccccc21` (centres undefined) registered an EC50 in data set [4] of over 5 µM.

In the case of `CNC(=O)CCCN1C(=O)C(CCOc2ccccc2CC(=O)O)Oc2ccccc21` (centres undefined), the EC50 in data set [4] was over 5 µM.

As to `COCCCCN1C(=O)[C@@H](CCOc2ccccc2CC(=O)O)Oc2ccccc21`, the bioavailability in data set [1] was found to be 41%. The compound also showed a half-life in data set [2] of 6.7 h. The AUC in data set [3] amounted to 88 µM·h. Also, the midpoint of the response in data set [4], the EC50, lay at 0.274 µM. The compound further came in with a half-life at 5 µM in data set [5] of over 8.33 h.

Compound `CC(C)N1C(=O)C(CCOc2ccccc2CC(=O)O)Oc2ccccc21` (centres undefined) displayed an EC50 in data set [4] of over 5 µM.

In turn, `CC(O)CCCCN1C(=O)C(CCOc2ccccc2CC(=O)O)Oc2ccccc21` (centres undefined) displayed an EC50 in data set [4] of 1 µM.

In data set [4], `CCCCCCN1C(=O)[C@H](CCOc2ccccc2CC(=O)O)Oc2ccccc21` registered a 50% effective concentration (EC50) of 1.2 µM.

`CCCN1C(=O)C(CCOc2ccccc2CC(=O)O)Oc2ccccc21` (centres undefined) had an EC50 in data set [4] of about 5 µM.

The compound `CC(C)CN1C(=O)C(CCOc2ccccc2CC(=O)O)Oc2ccccc21` (centres undefined) displayed an EC50 in data set [4] of about 5 µM.

`O=C(O)Cc1ccccc1OCCC1Oc2ccccc2N(CCCCCCCO)C1=O` (centres undefined): in data set [1], the bioavailability came to 13%. The same compound showed a half-life in data set [2] of 7 h. The same compound came in with an AUC in data set [3] of 2.3 µM·h. Besides, a half-maximal effect in data set [4] (EC50) was put at 0.149 µM. Further, in data set [5], the half-life at 5 µM was determined as 1.27 h.

Compound `CC(C)(O)CCCCN1C(=O)C(CCOc2ccccc2CC(=O)O)Oc2ccccc21` (centres undefined) registered an EC50 in data set [4] of 0.644 µM.

In data set [4], `CC(F)(F)CCCCN1C(=O)[C@H](CCOc2ccccc2CC(=O)O)Oc2ccccc21` gave an EC50 of 1 µM.

`CCCNC(=O)CN1C(=O)C(CCOc2ccccc2CC(=O)O)Oc2ccccc21` (centres undefined): the EC50 in data set [4] is over 5 µM.

In turn, `CC(F)(F)CCCCCN1C(=O)C(CCOc2ccccc2CC(=O)O)Oc2ccccc21` (centres undefined) had a concentration giving a half-maximal response (EC50) in data set [4] of 0.534 µM.

The compound `CCCCN1C(=O)C(CCOc2ccccc2CC(=O)O)Oc2ccccc21` (centres undefined) registered an EC50 in data set [4] of about 5 µM.

In turn, `CCCCCCCN1C(=O)C(CCOc2ccccc2CC(=O)O)Oc2ccccc21` (centres undefined) had an EC50 in data set [4] of 0.234 µM.

Take `CCCCCCN1C(=O)C(CCOc2ccccc2CC(=O)O)Oc2ccccc21` (centres undefined): in data set [1], the bioavailability was found to be 115%. Also, in data set [2], the half-life is 14 h. In addition, in data set [4], the EC50 was determined as 0.1 µM. In data set [6], this compound returned an AUC of 406 µM·h. Moreover, in data set [5], the half-life at 5 µM amounted to 0.883 h.

`O=C(O)Cc1ccccc1OCCC1Oc2ccccc2N(CC(=O)O)C1=O` (centres undefined): in data set [4], the EC50 is over 5 µM.

Take `CCCCCCN1C(=O)[C@@H](CCOc2ccccc2CC(=O)O)Oc2ccccc21`: in data set [1], the bioavailability is 95%. In data set [2], this compound showed a half-life of 14.5 h. Further, in data set [3], the area under the curve (AUC) stood at 327 µM·h. Further, in data set [4], the response was half-maximal at 0.1 µM (EC50). In data set [5], this compound registered a half-life at 5 µM of 1.22 h.

Regarding `CC(C)(CCCCN1C(=O)C(CCOc2ccccc2CC(=O)O)Oc2ccccc21)C(=O)O` (centres undefined), in data set [4], a half-maximal response (EC50) required 1 µM.

Take `CCOCCCN1C(=O)C(CCOc2ccccc2CC(=O)O)Oc2ccccc21` (centres undefined): the concentration giving a half-maximal response (EC50) in data set [4] is about 5 µM.

Regarding `C/C(CCCCN1C(=O)C(CCOc2ccccc2CC(=O)O)Oc2ccccc21)=N\O` (centres undefined), the bioavailability in data set [1] amounted to 16%. The half-life in data set [2] is 4.2 h. This compound also registered an AUC in data set [3] of 19.9 µM·h. The EC50 in data set [4] is 0.01 µM. This compound came in with a half-life at 5 µM in data set [5] of 2.47 h.

Take `C=CCCCCN1C(=O)C(CCOc2ccccc2CC(=O)O)Oc2ccccc21` (centres undefined): a half-maximal response in data set [4] (EC50) required 0.208 µM.

Regarding `CCCCCN1C(=O)C(CCOc2ccccc2CC(=O)O)Oc2ccccc21` (centres undefined), in data set [4], the concentration for a half-maximal effect (EC50) was determined as 0.243 µM.

For `O=C(O)CCCCN1C(=O)C(CCOc2ccccc2CC(=O)O)Oc2ccccc21` (centres undefined), the EC50 in data set [4] is over 5 µM.

Take `CC(=O)CCCCCN1C(=O)C(CCOc2ccccc2CC(=O)O)Oc2ccccc21` (centres undefined): a half-maximal effect in data set [4] (EC50) was put at 0.264 µM.

In data set [4], `NC(=O)CCCCN1C(=O)C(CCOc2ccccc2CC(=O)O)Oc2ccccc21` (centres undefined) had an EC50 of over 5 µM.

`O=C(O)CCCCCN1C(=O)C(CCOc2ccccc2CC(=O)O)Oc2ccccc21` (centres undefined): the EC50 in data set [4] was over 5 µM.

For the compound `CCCCCCCCN1C(=O)C(CCOc2ccccc2CC(=O)O)Oc2ccccc21` (centres undefined), in data set [4], the EC50 is 0.3 µM.

In data set [4], `CC(F)(F)CCCCN1C(=O)C(CCOc2ccccc2CC(=O)O)Oc2ccccc21` (centres undefined) returned an EC50 of 0.179 µM.

On to `O=C(O)Cc1ccccc1OCCC1Oc2ccccc2N(CCC2CCCCC2)C1=O` (centres undefined), for which the response in data set [4] was half-maximal at 0.3 µM (EC50).

On to `NC(=O)CCCCCN1C(=O)C(CCOc2ccccc2CC(=O)O)Oc2ccccc21` (centres undefined), for which the EC50 in data set [4] is about 5 µM.

With `O=C(O)Cc1ccccc1OCC[C@H]1Oc2ccccc2N(CCCCCCF)C1=O`, in data set [1], the bioavailability stood at 39%. Moreover, the half-life in data set [2] is 7.9 h. The AUC in data set [3] came out at 93 µM·h. Also, the response in data set [4] was half-maximal at 0.152 µM (EC50). Moreover, the half-life at 5 µM in data set [5] stood at 1.85 h.

Regarding `CS(=O)(=O)NCCCCCCN1C(=O)C(CCOc2ccccc2CC(=O)O)Oc2ccccc21` (centres undefined), the EC50 in data set [4] was over 5 µM.

As for `O=C(O)Cc1ccccc1OCCC1Oc2ccccc2N(CCCCCO)C1=O` (centres undefined), the EC50 in data set [4] was determined as 1 µM.

In turn, `O=C(O)Cc1ccccc1OCCC1Oc2ccccc2N(CCCC2CCCC2)C1=O` (centres undefined) gave an EC50 in data set [4] of 2.7 µM.

Turning to `CC(=O)CCCCN1C(=O)C(CCOc2ccccc2CC(=O)O)Oc2ccccc21` (centres undefined), the bioavailability in data set [1] is 27%. Moreover, in data set [2], the half-life was 9.8 h. The compound also gave an AUC in data set [3] of 5.8 µM·h. Also, in data set [4], the response was half-maximal at 0.26 µM (EC50). The compound also came in with a half-life at 5 µM in data set [5] of 0.85 h.

As for `O=C(O)Cc1ccccc1OCC[C@@H]1Oc2ccccc2N(CCCCCCF)C1=O`, the EC50 in data set [4] was 0.57 µM.

As for `CC(C)(C#N)CCCCN1C(=O)C(CCOc2ccccc2CC(=O)O)Oc2ccccc21` (centres undefined), in data set [4], the EC50 was determined as 0.359 µM.

For `CC(C)(C)CCCCN1C(=O)C(CCOc2ccccc2CC(=O)O)Oc2ccccc21` (centres undefined), in data set [4], a half-maximal response (EC50) required 1 µM.

Consider `O=C(O)Cc1ccccc1OCCC1Oc2ccccc2N(CCC2CCCC2)C1=O` (centres undefined), for which the EC50 in data set [4] is about 5 µM.

Consider `CCCSCCN1C(=O)C(CCOc2ccccc2CC(=O)O)Oc2ccccc21` (centres undefined), for which the EC50 in data set [4] came out at 0.38 µM.

For `O=C(O)Cc1ccccc1OCCC1Oc2ccccc2N(CCO)C1=O` (centres undefined), the EC50 in data set [4] is over 5 µM.

As for `CC(=O)NCCCCCCN1C(=O)C(CCOc2ccccc2CC(=O)O)Oc2ccccc21` (centres undefined), the EC50 in data set [4] was over 5 µM.

On to `CO/N=C(\C)CCCCN1C(=O)C(CCOc2ccccc2CC(=O)O)Oc2ccccc21` (centres undefined), for which the concentration for a half-maximal effect (EC50) in data set [4] was about 5 µM.

Regarding `CCCCCCCCCCN1C(=O)C(CCOc2ccccc2CC(=O)O)Oc2ccccc21` (centres undefined), the EC50 in data set [4] was found to be 1 µM.

The compound `CC(F)(F)CCCCN1C(=O)[C@@H](CCOc2ccccc2CC(=O)O)Oc2ccccc21` showed an EC50 in data set [4] of 0.295 µM.

Take `COCCCCN1C(=O)C(CCOc2ccccc2CC(=O)O)Oc2ccccc21` (centres undefined): the half-maximal effective concentration (EC50) in data set [4] was 0.274 µM.

`CC(C)CCCCN1C(=O)C(CCOc2ccccc2CC(=O)O)Oc2ccccc21` (centres undefined) showed an EC50 in data set [4] of 0.079 µM.

Consider `O=C(O)Cc1ccccc1OCCC1Oc2ccccc2N(CCCCCCCF)C1=O` (centres undefined), for which it took 0.718 µM to reach a half-maximal effect in data set [4] (EC50).

On to `CCN1C(=O)C(CCOc2ccccc2CC(=O)O)Oc2ccccc21` (centres undefined), for which, in data set [4], the EC50 was over 5 µM.

Take `CCCCCCCCCN1C(=O)C(CCOc2ccccc2CC(=O)O)Oc2ccccc21` (centres undefined): the EC50 in data set [4] was about 5 µM.

As for `O=C(O)Cc1ccccc1OCCC1Oc2ccccc2N(CCCCCCO)C1=O` (centres undefined), in data set [1], the bioavailability turned out to be 4%. For the same compound, the half-life in data set [2] is 0.6 h. The AUC in data set [3] amounted to 2.5 µM·h. The EC50 in data set [4] is 0.2 µM. In data set [5], the half-life at 5 µM came to 0.95 h.
